Experimental data taken from patent US20080090788A1, “Chemical Compounds” (priority 2005, published 2008).

Experiments:
[1] = tested on: Hepatic stellate cells (HSC); test: HSC apoptosis by acridine orange staining; type: cell-based, rat; details: for degree of HSC apoptosis compared with SFZ 1 mM: 3a 0.150 mM, 3e 0.127 mM, 3f 0.089 mM (approximately 5-fold lower concentrations)
Method: To determine the effects of SFZ analogues on HSC survival, activated HSC were treated for 24 hrs with SFZ or analogues, and apoptotic HSC were visualised by staining with Acridine orange (1 μg/ml in 10 mM 4-(2-hydroxyethyl)-1-piperazineethanesulfonic acid (Hepes) buffer, pH7.4). The proportion of apoptotic cells in five random fields were counted in duplicate wells at x20 magnification using a fluorescein isothiocyanate filter. Apoptosis of HSC measured by acridine orange correlates closely with activation of caspase 3.
In addition to its role in malignant cells, NF-kB is required for survival of HSC, which play a key role in the pathogenesis of chronic liver disease. The ability of SFZ and analogues to induce HSC apoptosis was also compared. SFZ (1 mM) increased apoptosis ˜4.5-fold in cultured rat HSC (FIG. 5b). […] Therefore, the SFZ analogues with improved NF-kB-inhibiting activity are also relatively potent inducers of HSC apoptosis.
(A) CLL cells from three different patients were cultured in the presence of SFZ or compounds 3a and 3f (all at 0.5 mM), or DMSO as a solvent control. After 6 hours, the degree of PARP cleavage was determined as a measure of apoptosis. […] Note that compound 3f was not tested in cells from patient 3. (B) HSC were cultured in the presence of SFZ (1 mM), compounds 3a (0.150 mM), 3e (0.127 mM), 3f (0.089 mM), or DMSO as a solvent control. Analogues were used at the concentration that gave 50% inhibition of NF-kB transcriptional activity in U937 cells. After 20 hours, the proportion of apoptotic cells were visualised by acridine orange staining. Apoptotic cells were counted in five fields in duplicate for each concentration, in two independent experiments and results expressed as mean ±SEM,

IkB-α promoter = IkB-α promoter luciferase activity in transfected activated HSC; type: cell-based; details: 24 hours, rat HSC; for inhibition of IkB-α promoter activity compared with SFZ 1 mM: 3a 0.150 mM, 3e 0.127 mM, 3f 0.089 mM (at IC50)
Method: For HSC transfections, activated HSC were transfected by the non-liposomal Effectene protocol (Qiagen, UK) using 1 μg reporter plasmid DNA and 10 ng of control Renilla plasmid pRLTK (Promega, Southampton, UK) according to the manufacturer's instructions. After 24 hours, HSC were treated with test compounds for a further 24 hours. Luciferase assays were performed using a dual luciferase kit (Promega) according to the manufacturer's instructions. Firefly luciferase activities were normalised for differences in transfection efficiency by measurement of the activity of the co-transfected pRLTK. The pIκBα wt-Luc plasmid contains nucleotides −332 to +35 of the human IkB-α promoter cloned upstream of luciferase gene (Oakley F, et al, J Biol Chem 2003; 278: 24359-70). The pTIMP1-Luc plasmid contains the 162 bp human TIMP1 minimal promoter cloned upstream of luciferase gene (Bertrand-Philippe M, et al. J Biol Chem 2004; 279: 24530-9). The pAP1-Luc plasmid (Stratagene, UK) contains 7 copies of a consensus AP-1 binding site upstream of the minimal promoter and the luciferase gene.
To extend these findings, further analyses were performed using the […] promoter which contains multiple NF-kB binding sites and is a well studied NF-kB target. […] Consistent with the presence of activated NF-kB in HSC, (Wright M C et al, Gastroenterology 2001; 121: 685-98.) the IkB-α promoter was activated in HSC (FIG. 2a). SFZ (1 mM) inhibited promoter activity by >60%. […] Therefore, the improved inhibitory activity of analogues 3a, 3e and 3f is specific for NF-kB mediated transcription and is not restricted to U937 cells or artificial promoter constructs.
Rat HSC were transfected with (A) IkB-α-Luc, (B) TIMP1-Luc or (C) pAP-1-Luc reporter constructs. After 24 hours, cells were treated with sulfasalazine (1 mM), 3a (0.150 mM), 3e (0.127 mM), 3f (0.089 mM), or treated with DMSO as a control. Luciferase activity was determined after another 24 hours. Data presented are mean luciferase activity (±SEM) relative to control cells (value set to 100), derived from two separate experiments, each performed in duplicate and using an independent preparation of HSC.

| inhibition of IkB-α promoter activity compared with SFZ 1 mM (IkB-α promoter) | Compound | increase in apoptosis of cultured HSC ([1]; SFZ 1 mM, cultured rat HSC) [fold] | inhibition at 1000 µM (IkB-α promoter; SFZ 1 mM) [%] | degree of HSC apoptosis compared with SFZ 1 mM [1] |
| --- | --- | --- | --- | --- |
|  | O=C(O)c1cc(/N=N/c2ccc(S(=O)(=O)Nc3ccccn3)cc2)ccc1O [SFZ, Sulfasalazine, reference compound] | ~4.5 | > 60 |  |
| approximately equally effective | COc1ccc(CNS(=O)(=O)c2ccc(/N=N/c3ccc(O)c(C(=O)O)c3)cc2)cc1 [Compound 3a, 2-hydroxy-5-[4-(4-methoxy-benzylsulfamoyl)-phenylazo]-benzoic acid] |  |  | approximately the same degree of apoptosis |
| approximately equally effective | O=C(O)c1cc(/N=N/c2ccc(S(=O)(=O)NCc3ccc(C(F)(F)F)cc3)cc2)ccc1O [Compound 3f, 2-hydroxy-5-[4-(4-trifluoromethyl-benzylsulfamoyl)-phenylazo]-benzoic acid] |  |  | approximately the same degree of apoptosis |
| approximately equally effective | Cc1cc(/N=N/c2ccc(S(=O)(=O)NCc3ccc(C(F)(F)F)cc3)cc2)cc(C(=O)O)c1O [Compound 3e, 2-hydroxy-3-methyl-5-[4-(4-trifluoromethyl-benzylsulfamoyl)-phenylazo]-benzoic acid] |  |  | approximately the same degree of apoptosis |
